The values that follow come from patent US20240116951A1, “HETEROCYCLIC COMPOUNDS AND USES THEREOF” (Kumquat Biosciences Inc., priority 2022, published 2024).

The structures appear in SMILES notation.

Format in all cases: binding
In assay [1] the target is T1, KRAS WT (Homo sapiens, UniProt P01116).
T1 construct: made in house; host or cells: E. coli, e.g. BL21 (DE3)
Nature of the assay: HTRF assay of wildtype K-Ras interaction with SOS1 (PPI-HTRF). The following applies: HTRF, 5 nM KRAS WT; read-out: PPI-HTRF-5 nM KRAS WT. The method, boiled down:
(§1)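 GST-KRas + antiGST-Eu(K); His-hSOS1 + anti-6His-XL665. Buffer ~5 mM HEPES pH 7.4/150 mM NaCl/1 mM DTT/0.05% BSA/0.0025% Igepal. Cpd in DMSO, duplicates 10–0.01 μM; ≥10 min incubation, HTRF 620/665 nm, IC50 from ratio.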

The target in assay [2] is T2, KRAS G12D (Homo sapiens, UniProt P01116, G12D).
T2 construct: made in house; host or cells: E. coli, e.g. BL21 (DE3)
T2 sequence (P01116 1-188 isoform P01116-2 G12D): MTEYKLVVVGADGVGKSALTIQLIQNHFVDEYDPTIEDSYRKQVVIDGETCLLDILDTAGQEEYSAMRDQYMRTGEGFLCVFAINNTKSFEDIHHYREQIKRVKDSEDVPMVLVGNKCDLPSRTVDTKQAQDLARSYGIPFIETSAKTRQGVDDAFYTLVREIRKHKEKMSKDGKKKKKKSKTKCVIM
Nature of the assay: HTRF assay of K-Ras G12D interaction with SOS1 (PPI-HTRF). The following applies: HTRF, 5 nM KRAS G12D; read-out: PPI-HTRF-5 nM KRAS G12D. The method, boiled down: as §1
(In TR-FRET formats the signal depends on donor and acceptor labels being close together.)

Assay [3] addresses T3, KRAS G12S (Homo sapiens, UniProt P01116, G12S).
T3 construct: made in house; host or cells: E. coli, e.g. BL21 (DE3)
The assay is described as follows: HTRF assay of K-Ras G12S interaction with SOS1 (PPI-HTRF). Conditions: 5 nM KRAS G12S, read-out: PPI-HTRF-5 nM KRAS G12S. In outline:
as §1

T1 sequence (P01116 1-188 isoform P01116-2): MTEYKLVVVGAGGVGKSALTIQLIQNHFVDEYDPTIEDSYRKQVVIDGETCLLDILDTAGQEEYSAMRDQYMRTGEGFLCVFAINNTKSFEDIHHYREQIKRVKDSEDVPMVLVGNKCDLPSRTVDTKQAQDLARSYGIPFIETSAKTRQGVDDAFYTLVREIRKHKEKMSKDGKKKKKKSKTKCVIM
T3 sequence (P01116 1-188 isoform P01116-2 G12S): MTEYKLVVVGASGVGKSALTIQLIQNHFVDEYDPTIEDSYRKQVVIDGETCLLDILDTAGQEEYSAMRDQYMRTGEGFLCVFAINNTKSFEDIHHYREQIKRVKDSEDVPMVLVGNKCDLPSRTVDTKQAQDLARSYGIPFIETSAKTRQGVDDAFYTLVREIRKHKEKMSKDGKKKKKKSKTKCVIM

Regarding `Nc1nc2c(-c3ccc4c(N5CC6(CNCCN6)C5)nc(OC[C@@]56CCCN5C[C@H](F)C6)nc4c3F)ccc(F)c2s1` [Compound 253, 7-fluoro-4-(8-fluoro-2-(((2R,7aS)-2-fluorotetrahydro-1H-pyrrolizin-7a(5H)-yl)methoxy)-4-(2,5,8-triazaspiro[3.5]nonan-2-yl)quinazolin-7-yl)benzo[d]thiazol-2-amine], the IC50 in assay [1] is under 5 µM; in assay [2] it was over 5 µM; in assay [3] it was over 5 µM.
In the case of `C[C@@H]1C[C@@]2(CCN2)CN1c1nc(OC[C@@]23CCCN2C[C@H](F)C3)nc2c(F)c(-c3ccc(F)c4sc(N)c(C#N)c34)c(Cl)cc12` [Compound 335, 2-amino-4-(6-chloro-8-fluoro-2-(((2R,7aS)-2-fluorotetrahydro-1H-pyrrolizin-7a(5H)-yl)methoxy)-4-((4S,7R)-7-methyl-1,6-diazaspiro[3.4]octan-6-yl)quinazolin-7-yl)-7-fluorobenzo[b]thiophene-3-carbonitrile], the IC50 in assay [1], in assay [2] and in assay [3] was under 5 µM throughout.
In the case of `N#Cc1cnn(C(=O)N2CCC23CCN(c2nc(OC[C@@]45CCCN4C[C@H](F)C5)nc4c(F)c(-c5ccc(F)c6sc(N)c(C#N)c56)c(Cl)cc24)C3)c1` (stereo partly drawn) [Compound 309, 1-(6-(7-(2-amino-3-cyano-7-fluorobenzo[b]thiophen-4-yl)-6-chloro-8-fluoro-2-(((2R,7aS)-2-fluorotetrahydro-1H-pyrrolizin-7a(5H)-yl)methoxy)quinazolin-4-yl)-1,6-diazaspiro[3.4]octane-1-carbonyl)-1H-pyrazole-4-carbonitrile], the IC50 in assay [1], in assay [2] and in assay [3] was under 5 µM throughout.
As to `CCc1ncn(C(=O)N2CCC23CCN(c2nc(OC[C@@]45CCCN4C[C@H](F)C5)nc4c(F)c(-c5ccc(F)c6sc(N)c(C#N)c56)c(Cl)cc24)C3)n1` (stereo partly drawn) [Compound 314, 2-amino-4-(6-chloro-4-(1-(3-ethyl-1H-1,2,4-triazole-1-carbonyl)-1,6-diazaspiro[3.4]octan-6-yl)-8-fluoro-2-(((2R,7aS)-2-fluorotetrahydro-1H-pyrrolizin-7a(5H)-yl)methoxy)quinazolin-7-yl)-7-fluorobenzo[b]thiophene-3-carbonitrile], the IC50 in assay [1], in assay [2] and in assay [3] was under 5 µM each time.
Regarding `N#Cc1c(N)sc2c(F)ccc(-c3c(Cl)cc4c(N5CCC6(CC5)CCN6C(=O)C5CC5(F)F)nc(OC[C@@]56CCCN5C[C@H](F)C6)nc4c3F)c12` (stereo partly drawn) [Compound 342, 2-amino-4-(6-chloro-4-(1-(2,2-difluorocyclopropane-1-carbonyl)-1,7-diazaspiro[3.5]nonan-7-yl)-8-fluoro-2-(((2R,7aS)-2-fluorotetrahydro-1H-pyrrolizin-7a(5H)-yl)methoxy)quinazolin-7-yl)-7-fluorobenzo[b]thiophene-3-carbonitrile], the IC50 in assay [1], in assay [2] and in assay [3] was under 5 µM each time.
`N#Cc1c(N)sc2c(F)ccc(-c3c(Cl)cc4c(N5CC6(CCN6C(=O)C6CC6(F)F)C5)nc(OC[C@@]56CCCN5C[C@H](F)C6)nc4c3F)c12` (stereo partly drawn) [Compound 340, 2-amino-4-(6-chloro-4-(1-(2,2-difluorocyclopropane-1-carbonyl)-1,6-diazaspiro[3.3]heptan-6-yl)-8-fluoro-2-(((2R,7aS)-2-fluorotetrahydro-1H-pyrrolizin-7a(5H)-yl)methoxy)quinazolin-7-yl)-7-fluorobenzo[b]thiophene-3-carbonitrile]: the IC50 in assay [1], in assay [2] and in assay [3] was under 5 µM each time.
`C[C@H](Oc1nc(N2CCCC3(CCN3)C2)c2cc(Cl)c(-c3ccc(F)c4sc(N)c(C#N)c34)c(F)c2n1)[C@@H]1CCCN1C` (stereo partly drawn) [Compound 210, 2-amino-4-(6-chloro-8-fluoro-2-((S)-1-((S)-1-methylpyrrolidin-2-yl)ethoxy)-4-(1,6-diazaspiro[3.5]nonan-6-yl)quinazolin-7-yl)-7-fluorobenzo[b]thiophene-3-carbonitrile]: the IC50 in assay [1], in assay [2] and in assay [3] was under 5 µM each time.
`Cc1ncn(C(=O)N2CCOCC23CCN(c2nc(OC[C@@]45CCCN4C[C@H](F)C5)nc4c(F)c(-c5ccc(F)c6sc(N)c(C#N)c56)c(Cl)cc24)C3)n1` (stereo partly drawn) [Compound 214, 2-amino-4-(6-chloro-8-fluoro-2-(((2R,7aS)-2-fluorotetrahydro-1H-pyrrolizin-7a(5H)-yl)methoxy)-4-(6-(3-methyl-1H-1,2,4-triazole-1-carbonyl)-9-oxa-2,6-diazaspiro[4.5]decan-2-yl)quinazolin-7-yl)-7-fluorobenzo[b]thiophene-3-carbonitrile]: the IC50 in assay [1], in assay [2] and in assay [3] was under 5 µM each time.
Regarding `N#Cc1c(N)sc2c(F)ccc(-c3c(Cl)cc4c(N5CCCC6(CCN6)C5)nc(OC[C@@]56CCCN5C[C@H](F)C6)nc4c3F)c12` (stereo partly drawn) [Compound 236, 2-amino-4-(6-chloro-8-fluoro-2-(((2R,7aS)-2-fluorotetrahydro-1H-pyrrolizin-7a(5H)-yl)methoxy)-4-(1,6-diazaspiro[3.5]nonan-6-yl)quinazolin-7-yl)-7-fluorobenzo[b]thiophene-3-carbonitrile], the IC50 in assay [1], in assay [2] and in assay [3] was under 5 µM each time.
On to `N#Cc1c(N)sc2c(F)ccc(-c3c(Cl)cc4c(N5CCC6(CCN6C(=O)n6cncn6)C5)nc(OC[C@@]56CCCN5C[C@H](F)C6)nc4c3F)c12` (stereo partly drawn) [Compound 221, (4R)-4-(4-(1-(1H-1,2,4-triazole-1-carbonyl)-1,6-diazaspiro[3.4]octan-6-yl)-6-chloro-8-fluoro-2-(((2R,7aS)-2-fluorotetrahydro-1H-pyrrolizin-7a(5H)-yl)methoxy)quinazolin-7-yl)-2-amino-7-fluorobenzo[b]thiophene-3-carbonitrile], for which the IC50 in assay [1], in assay [2] and in assay [3] was under 5 µM in each case.
For `Nc1nc2c(-c3c(Cl)cc4c(N5CC6(CCN6C(=O)n6cncn6)C5)nc(OC[C@@]56CCCN5C[C@H](F)C6)nc4c3F)ccc(F)c2s1` [Compound 273, (6-(7-(2-amino-7-fluorobenzo[d]thiazol-4-yl)-6-chloro-8-fluoro-2-(((2R,7aS)-2-fluorotetrahydro-1H-pyrrolizin-7a(5H)-yl)methoxy)quinazolin-4-yl)-1,6-diazaspiro[3.3]heptan-1-yl)(1H-1,2,4-triazol-1-yl)methanone], the IC50 in assay [1], in assay [2] and in assay [3] was under 5 µM throughout.
For the compound `N#Cc1c(N)sc2c(F)ccc(-c3c(Cl)cc4c(N5CCC6(CCCN6C(=O)C6CC6(F)F)CC5)nc(OC[C@@]56CCCN5C[C@H](F)C6)nc4c3F)c12` (stereo partly drawn) [Compound 341, 2-amino-4-(6-chloro-4-(1-(2,2-difluorocyclopropane-1-carbonyl)-1,8-diazaspiro[4.5]decan-8-yl)-8-fluoro-2-(((2R,7aS)-2-fluorotetrahydro-1H-pyrrolizin-7a(5H)-yl)methoxy)quinazolin-7-yl)-7-fluorobenzo[b]thiophene-3-carbonitrile], the IC50 in assay [1], in assay [2] and in assay [3] was under 5 µM in each case.
`Nc1nc2c(-c3c(Cl)cc4c(N5CCCC6(CC5)CCN6C=O)nc(OC[C@@]56CCCN5C[C@H](F)C6)nc4c3F)ccc(F)c2s1` (stereo partly drawn) [Compound 233, 7-(7-(2-amino-7-fluorobenzo[d]thiazol-4-yl)-6-chloro-8-fluoro-2-(((2R,7aS)-2-fluorotetrahydro-1H-pyrrolizin-7a(5H)-yl)methoxy)quinazolin-4-yl)-1,7-diazaspiro[3.6]decane-1-carbaldehyde]: the IC50 in assay [1], in assay [2] and in assay [3] was under 5 µM throughout.
Turning to `C#Cc1c(F)ccc2cc(O)cc(-c3ncc4c(N5CCC6(CCN6C(=O)n6cncn6)C5)nc(O[C@@H](C)[C@@H]5CCCN5C)nc4c3F)c12` (stereo partly drawn) [Compound 256, (6-(7-(8-ethynyl-7-fluoro-3-hydroxynaphthalen-1-yl)-8-fluoro-2-((S)-1-((S)-1-methylpyrrolidin-2-yl)ethoxy)pyrido[4,3-d]pyrimidin-4-yl)-1,6-diazaspiro[3.4]octan-1-yl)(1H-1,2,4-triazol-1-yl)methanone], the figures for the IC50 in assay [1], in assay [2] and in assay [3] were over 5 µM, over 5 µM and under 5 µM, respectively.
In the case of `C[C@H]1CN[C@]12CCN(c1nc(OC[C@@]34CCCN3C[C@H](F)C4)nc3c(F)c(-c4ccc(F)c5sc(N)c(C#N)c45)c(Cl)cc13)C2` [Compound 334, 2-amino-4-(6-chloro-8-fluoro-2-(((2R,7aS)-2-fluorotetrahydro-1H-pyrrolizin-7a(5H)-yl)methoxy)-4-((3S,4R)-3-methyl-1,6-diazaspiro[3.4]octan-6-yl)quinazolin-7-yl)-7-fluorobenzo[b]thiophene-3-carbonitrile], the IC50 in assay [1], in assay [2] and in assay [3] was under 5 µM each time.
Consider `C[C@H]1N(c2nc(OC[C@@]34CCCN3C[C@H](F)C4)nc3c(F)c(-c4ccc(F)c5sc(N)c(C#N)c45)c(Cl)cc23)CC[C@]12CCN2C(=O)n1cnc(Cl)n1` [Compound 229, 2-amino-4-(6-chloro-4-((4S,5R)-1-(3-chloro-1H-1,2,4-triazole-1-carbonyl)-5-methyl-1,6-diazaspiro[3.4]octan-6-yl)-8-fluoro-2-(((2R,7aS)-2-fluorotetrahydro-1H-pyrrolizin-7a(5H)-yl)methoxy)quinazolin-7-yl)-7-fluorobenzo[b]thiophene-3-carbonitrile], for which the IC50 in assay [1], in assay [2] and in assay [3] was under 5 µM in each case.
